Data: PMC8443589, “Modelling human liver fibrosis in the context of non-alcoholic steatohepatitis using a microphysiological system” (Communications Biology, 2021)

System: liver MPS NASH model (PHH, KC and HSC co-cultures, high fat)
Assay: Secreted cytokine/biomarker profile (Luminex, ELISA) of liver MPS NASH model dosed with OCA or ELF
Format: cell-based, human
Settings: for inflammatory cytokines, including CXCL1, IL1-Rα, IL-6 and MCP-1: 10 days of compound treatment
Experimental: Fig. 3 Obeticholic acid and Elafibranor both modulate inflammatory and fibrosis phenotype in liver MPS NASH model and phenotype can additionally be reversed with dietary changes. PHH, KC and HSC co-cultures were cultured in the MPS platform under high fat conditions and dosed with varying concentrations of Obeticholic acid (OCA) and Elafibranor (ELF) QD or vehicle control (control) for 10 days, following an initial 4-day pre-culture phase. a The secreted cytokine profile from liver microtissues was compared by Luminex to determine the effects of each compound on the inflammatory profile of the liver with samples analysed at day 8 and 14 of the culture. Data were normalised by Z-transformation to allow comparison of all analytes and presented as a heatmap. b The expression of fibrosis-associated genes was analysed in total RNA from control, OCA and ELF treated liver microtissues (highest concentration for each compound) using Human Fibrosis RT2 Profiler PCR Arrays. Gene expression changes are expressed as a fold change over control. c Liver microtissues were stained for collagen-type I, α-SMA, nuclei (DAPI - blue), phalloidin (green) and imaged by confocal microscopy. Representative images are shown and scale bars 200 µm. d Staining of microtissue was quantified by measuring total fluorescence intensity throughout individual microtissues, each data point represents an average of all the microtissues imaged within an MPS scaffold (min 8, max 20 microtissues). e PHH, KC and HSC co-cultures were cultured in the MPS platform under high fat or lean conditions for 30 days. Cultures either remained in the same type of media throughout or were switched at day 15 from fat media to lean media (Fat -> Lean). Cell culture medium samples were analysed for the presence of IL-6, f MCP-1, g TIMP-1, which were measured by ELISA. h Microtissues were stained with Oil-Red O to determine fat loading during culture period, total stain was quantified by absorbance at 510 nm. All datapoints shown, either as box-whisker plots highlighting mean and min-max or with error bars highlighting means ± SD. All data from a minimum of three independent cultures; statistical comparisons made to control samples unless other comparison shown.
Soluble biomarkers in cell culture medium from the MPS were analysed by enzyme-linked immunosorbent assay (ELISA); IL-6 was measured by Human IL-6 DuoSet ELISA (R&D Systems); MCP-1 was measured by Human CCL2/MCP-1 DuoSet ELISA (R&D Systems); pro-collagen 1 was measured by Human Pro-Collagen I α1 DuoSet (R&D Systems); TIMP-1 was measured by Human TIMP-1 Quantikine ELISA Kit (R&D Systems); Fibronectin was measured by Human Fibronectin DuoSet ELISA (R&D Systems); YKL-40 was measured by Human Chitinase 3-like 1 Quantikine ELISA Kit (R&D Systems); Albumin secretion was measured by Human Albumin AssayMax™ ELISA kit (Assay Pro, St. Charles, MO). For all assays, the manufacturer’s protocol was followed.
Cytokine profiles in cell culture medium samples were also analysed by Luminex array for determination of 38 analytes in total, consisting of cytokines, chemokines, and growth factors using the MILLIPLEX MAP Human Cytokine/Chemokine Magnetic Bead Panel - Premixed 38 Plex (Merck Millipore, USA).
Liver microtissues were cultured for 4 days in HEP-FAT medium, before dosing with obeticholic acid or elafibranor. Both compounds were dissolved in DMSO, diluted in cell culture medium (final DMSO concentration ≤1%) and added to microtissues during a full medium change every two days and in addition on the intervening days compounds were spiked into the media to increase drug concentration back to desired concentrations. Cultures were maintained in the presence of the compound, for a total of 10 days in the presence or absence of TGFβ.

## CC[C@H]1[C@@H](O)[C@@H]2[C@H](CC[C@]3(C)[C@@H]([C@H](C)CCC(=O)O)CC[C@@H]23)[C@@]2(C)CC[C@@H](O)C[C@@H]12 [Obeticholic acid]
  inflammatory cytokines, including CXCL1, IL1-Rα, IL-6 and MCP-1: concentration-dependent decrease
OCA 0.25 µM QD, D8
  CXCL1 fold change in production compared to control: 1.039
  CXCL10 fold change in production compared to control: 1.592
  FN1 fold change in production compared to control: 1.009
  IL-1RA fold change in production compared to control: 0.6936
  IL-4 fold change in production compared to control: 1.307
  IL-6 fold change in production compared to control: 0.4788
  IL-8 fold change in production compared to control: 1.109
  MCP-1 fold change in production compared to control: 1.237
  MIP-1a fold change in production compared to control: 1.006
  MIP-1b fold change in production compared to control: 1.009
  TIMP-1 fold change in production compared to control: 0.957
  VEGF fold change in production compared to control: 0.3694
OCA 0.25 µM QD, D14
  CXCL1 fold change in production compared to control: 0.7512
  CXCL10 fold change in production compared to control: 1.289
  FN1 fold change in production compared to control: 1.087
  IL-1RA fold change in production compared to control: 0.3915
  IL-4 fold change in production compared to control: 1.067
  IL-6 fold change in production compared to control: 0.3892
  IL-8 fold change in production compared to control: 0.7621
  MCP-1 fold change in production compared to control: 1.11
  MIP-1a fold change in production compared to control: 1.483
  MIP-1b fold change in production compared to control: 1.406
  TIMP-1 fold change in production compared to control: 0.7667
  VEGF fold change in production compared to control: 0.2436
OCA 5 µM QD, D8
  CXCL1 fold change in production compared to control: 0.9903
  CXCL10 fold change in production compared to control: 1.252
  FN1 fold change in production compared to control: 0.9708
  IL-1RA fold change in production compared to control: 0.2279
  IL-4 fold change in production compared to control: 1.215
  IL-6 fold change in production compared to control: 0.3708
  IL-8 fold change in production compared to control: 1.325
  MCP-1 fold change in production compared to control: 0.9348
  MIP-1a fold change in production compared to control: 0.7425
  MIP-1b fold change in production compared to control: 0.6949
  TIMP-1 fold change in production compared to control: 0.8577
  VEGF fold change in production compared to control: 0.4201
OCA 5 µM QD, D14
  CXCL1 fold change in production compared to control: 0.8937
  CXCL10 fold change in production compared to control: 1.722
  FN1 fold change in production compared to control: 1.05
  IL-1RA fold change in production compared to control: 0.2225
  IL-4 fold change in production compared to control: 1.3182
  IL-6 fold change in production compared to control: 0.3278
  IL-8 fold change in production compared to control: 2.0708
  MCP-1 fold change in production compared to control: 0.6363
  MIP-1a fold change in production compared to control: 0.8372
  MIP-1b fold change in production compared to control: 0.7752
  TIMP-1 fold change in production compared to control: 0.8205
  VEGF fold change in production compared to control: 0.5877
OCA 12.5 µM QD, D8
  CXCL1 fold change in production compared to control: 0.5392
  CXCL10 fold change in production compared to control: 1.011
  FN1 fold change in production compared to control: 0.8305
  IL-1RA fold change in production compared to control: 0.1467
  IL-4 fold change in production compared to control: 0.6477
  IL-6 fold change in production compared to control: 0.3353
  IL-8 fold change in production compared to control: 0.6609
  MCP-1 fold change in production compared to control: 0.4398
  MIP-1a fold change in production compared to control: 1.1281
  MIP-1b fold change in production compared to control: 0.9989
  TIMP-1 fold change in production compared to control: 1.076
  VEGF fold change in production compared to control: 0.449
OCA 12.5 µM QD, D14
  CXCL1 fold change in production compared to control: 0.5648
  CXCL10 fold change in production compared to control: 0.9485
  FN1 fold change in production compared to control: 0.8335
  IL-1RA fold change in production compared to control: 0.07151
  IL-4 fold change in production compared to control: 0.8808
  IL-6 fold change in production compared to control: 0.05395
  IL-8 fold change in production compared to control: 1.84
  MCP-1 fold change in production compared to control: 0.2656
  MIP-1a fold change in production compared to control: 0.8417
  MIP-1b fold change in production compared to control: 0.7263
  TIMP-1 fold change in production compared to control: 0.9472
  VEGF fold change in production compared to control: 0.5676

## CSc1ccc(C(=O)/C=C/c2cc(C)c(OC(C)(C)C(=O)O)c(C)c2)cc1 [Elafibranor]
  inflammatory cytokines, including CXCL1, IL1-Rα, IL-6 and MCP-1: concentration-dependent decrease
ELF 1.3 µM QD, D8
  CXCL1 fold change in production compared to control: 0.8888
  CXCL10 fold change in production compared to control: 0.9847
  FN1 fold change in production compared to control: 0.9865
  IL-1RA fold change in production compared to control: 0.559
  IL-4 fold change in production compared to control: 1.264
  IL-6 fold change in production compared to control: 0.3707
  IL-8 fold change in production compared to control: 1.017
  MCP-1 fold change in production compared to control: 1.109
  MIP-1a fold change in production compared to control: 0.8137
  MIP-1b fold change in production compared to control: 0.885
  TIMP-1 fold change in production compared to control: 0.8634
  VEGF fold change in production compared to control: 0.3678
ELF 1.3 µM QD, D14
  CXCL1 fold change in production compared to control: 0.5791
  CXCL10 fold change in production compared to control: 0.6755
  FN1 fold change in production compared to control: 1.109
  IL-1RA fold change in production compared to control: 0.3482
  IL-4 fold change in production compared to control: 0.8813
  IL-6 fold change in production compared to control: 0.3647
  IL-8 fold change in production compared to control: 0.625
  MCP-1 fold change in production compared to control: 0.9408
  MIP-1a fold change in production compared to control: 0.8725
  MIP-1b fold change in production compared to control: 1.297
  TIMP-1 fold change in production compared to control: 0.9244
  VEGF fold change in production compared to control: 0.5658
ELF 13 µM QD, D8
  CXCL1 fold change in production compared to control: 0.7659
  CXCL10 fold change in production compared to control: 0.8228
  FN1 fold change in production compared to control: 0.9502
  IL-1RA fold change in production compared to control: 0.4867
  IL-4 fold change in production compared to control: 1.05
  IL-6 fold change in production compared to control: 0.3808
  IL-8 fold change in production compared to control: 0.9446
  MCP-1 fold change in production compared to control: 0.8534
  MIP-1a fold change in production compared to control: 0.3878
  MIP-1b fold change in production compared to control: 0.4913
  TIMP-1 fold change in production compared to control: 0.6879
  VEGF fold change in production compared to control: 0.494
ELF 13 µM QD, D14
  CXCL1 fold change in production compared to control: 0.5325
  CXCL10 fold change in production compared to control: 0.6314
  FN1 fold change in production compared to control: 0.9442
  IL-1RA fold change in production compared to control: 0.3167
  IL-4 fold change in production compared to control: 1.0405
  IL-6 fold change in production compared to control: 0.4596
  IL-8 fold change in production compared to control: 0.6408
  MCP-1 fold change in production compared to control: 0.5
  MIP-1a fold change in production compared to control: 0.4932
  MIP-1b fold change in production compared to control: 0.6533
  TIMP-1 fold change in production compared to control: 0.6384
  VEGF fold change in production compared to control: 1.282
ELF 65 µM QD, D8
  CXCL1 fold change in production compared to control: 0.4476
  CXCL10 fold change in production compared to control: 0.3212
  FN1 fold change in production compared to control: 0.8989
  IL-1RA fold change in production compared to control: 0.1707
  IL-4 fold change in production compared to control: 0.5412
  IL-6 fold change in production compared to control: 0.2914
  IL-8 fold change in production compared to control: 0.5667
  MCP-1 fold change in production compared to control: 0.402
  MIP-1a fold change in production compared to control: 0.2899
  MIP-1b fold change in production compared to control: 0.5458
  TIMP-1 fold change in production compared to control: 0.784
  VEGF fold change in production compared to control: 0.6076
ELF 65 µM QD, D14
  CXCL1 fold change in production compared to control: 0.3166
  CXCL10 fold change in production compared to control: 0.3403
  FN1 fold change in production compared to control: 0.7375
  IL-1RA fold change in production compared to control: 0.07012
  IL-4 fold change in production compared to control: 0.3173
  IL-6 fold change in production compared to control: 0.09996
  IL-8 fold change in production compared to control: 0.4914
  MCP-1 fold change in production compared to control: 0.1355
  MIP-1a fold change in production compared to control: 0.3265
  MIP-1b fold change in production compared to control: 0.1355
  TIMP-1 fold change in production compared to control: 0.5288
  VEGF fold change in production compared to control: 1.5699
